Legend:
[1] = system: bovine spleen phosphodiesterase; test: Enzymatic stability was assessed with bovine spleen phosphodiesterase (BS PDE) exonuclase; assay type: ADME, Bos taurus; details: cattle, bovine spleen phosphodiesterase (BS PDE) exonuclease
[2] = system: snake venom phosphodiesterase; test: Enzymatic stability was assessed with snake venom phosphodiesterase (SV PDE) exonuclase; assay type: ADME; details: serpentes, snake venom phosphodiesterase (SV PDE) exonuclease
[3] = molecular target: Human immunodeficiency virus type 1 reverse transcriptase (Human immunodeficiency virus 1, UniProt Q72547); test: Inhibitory activity against HIV reverse transcriptase (HIV RT)

| Ki [3] | Structure (SMILES) | half-life [1] | half-life [2] |
| --- | --- | --- | --- |
| – | Nc1ncnc2c1ncn2[C@@H]1CO[C@H](COP(=O)([O-])OC2C[C@H](n3cnc4c(N)ncnc43)OC2CO)C1.[Na+] (stereo not given in full) | 50 min | > 550 min |
| – | Nc1ncnc2c1ncn2[C@H]1C[C@H](OP(=O)(O)OC[C@H]2O[C@@H](n3cnc4c(N)ncnc43)C[C@@H]2O)[C@@H](CO)O1 | 1.5 min | < 1 min |
| 16 nM | Nc1ncnc2c1ncn2C1COC(COP(=O)(O)OP(=O)(O)OP(=O)(O)O)C1 (stereo not given) | – | – |
